Assay [1] concerns the target c-Cbl (Homo sapiens (Human), UniProt P22681). As to the kind of experiment: C-cbl LCK Ub TR-FRET assay (C-cbl Lck HTRF). It counts as biochemical. An outline of the steps: (§1)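 Biotin-Cbl-b (16 nM) or biotin-c-Cbl (12 nM) at 2× preincubated with compound 60 min, then His-LCK (120 nM), 1 mM ATP and MgCl2 (2× mix) added for 90 min at RT. Buffer: HEPES pH 7.0, DTT. UBE2D2–HA-ubiquitin transfer read by TR-FRET (665/615 nm); IC50 versus no-LCK and DMSO controls, 10-point dilutions.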

Assay [2] addresses Cbl-b (Homo sapiens (Human), UniProt Q13191). In words: Cbl-b LCK Ub TR-FRET assay (Cbl-b Lck HTRF). The conditions noted are these: for (fold-selectivity): Cbl-b and C-Cbl selectivity, Lck HTRF; for IC50: read-out: Cbl-b Lck HTRF IC50. It is filed as biochemical. An outline of the steps: as §1
(In general: Time-resolved FRET reads energy transfer from a long-lived donor to a nearby acceptor.)

Results on nine molecules are retold here after US20240300927A1, “AMIDES AS CBL-B INHIBITORS” (Genentech, Inc., priority 2021, published 2024).

Chain of Cbl-b (Q13191 40-426): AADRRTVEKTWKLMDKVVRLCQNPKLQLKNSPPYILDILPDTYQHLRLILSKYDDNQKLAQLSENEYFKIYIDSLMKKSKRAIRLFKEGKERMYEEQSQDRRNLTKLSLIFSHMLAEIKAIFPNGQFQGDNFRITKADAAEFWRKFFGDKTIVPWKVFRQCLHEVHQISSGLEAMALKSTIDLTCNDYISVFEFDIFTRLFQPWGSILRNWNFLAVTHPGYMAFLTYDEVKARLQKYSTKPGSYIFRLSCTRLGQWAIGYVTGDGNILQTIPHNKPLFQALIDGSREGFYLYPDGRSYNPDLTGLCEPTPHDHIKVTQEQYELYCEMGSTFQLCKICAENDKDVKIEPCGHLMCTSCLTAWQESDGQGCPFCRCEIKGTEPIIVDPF
Chain of c-Cbl (P22681 47-435): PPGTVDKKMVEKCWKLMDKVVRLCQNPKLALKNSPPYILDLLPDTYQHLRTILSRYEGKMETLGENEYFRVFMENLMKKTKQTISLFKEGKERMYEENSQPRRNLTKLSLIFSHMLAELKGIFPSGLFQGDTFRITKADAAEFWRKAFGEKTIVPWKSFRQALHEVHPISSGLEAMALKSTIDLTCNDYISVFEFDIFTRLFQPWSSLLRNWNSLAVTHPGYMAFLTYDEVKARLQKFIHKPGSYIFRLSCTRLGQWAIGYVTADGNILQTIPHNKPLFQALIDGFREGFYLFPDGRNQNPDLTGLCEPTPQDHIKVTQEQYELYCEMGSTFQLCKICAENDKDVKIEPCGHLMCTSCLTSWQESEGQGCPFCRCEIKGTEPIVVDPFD

In assay [1], `C[C@H](Cc1nncn1C)c1cccc(NC(=O)c2nc(C(F)(F)F)c(CN3CCC4(CC4)C3)[nH]2)c1` [Compound 26, (R)-5-(5-azaspiro[2.4]heptan-5-ylmethyl)-N-(3-(1-(4-methyl-4H-1,2,4-triazol-3-yl)propan-2-yl)phenyl)-4-(trifluoromethyl)-1H-imidazole-2-carboxamide] showed an IC50 of 2200 nM. For the same molecule, in assay [2], the “(fold-selectivity)” value is on record as “(1.5x)” and the IC50 worked out at 1500 nM.
For `Cn1cnnc1[C@@H](F)[C@](C)(F)c1cccc(NC(=O)c2cc(CN3CCC4(CC4)C3)nc(C3CC3)n2)c1` [Compound 42, 6-(5-azaspiro[2.4]heptan-5-ylmethyl)-2-cyclopropyl-N-(3-((1R,2R)-1,2-difluoro-1-(4-methyl-4H-1,2,4-triazol-3-yl)propan-2-yl)phenyl)pyrimidine-4-carboxamide] the same measures were 270 nM, “(1.4x)” and 190 nM.
Molecule `Cn1cnnc1[C@@H](F)C1(c2cccc(NC(=O)c3cc(CN4CCC5(CC5)C4)cc(C4CC4)n3)c2)COC1` [Compound 6, (S)-4-(5-azaspiro[2.4]heptan-5-ylmethyl)-6-cyclopropyl-N-(3-(3-(fluoro(4-methyl-4H-1,2,4-triazol-3-yl)methyl)oxetan-3-yl)phenyl)picolinamide] yielded an IC50 in assay [1] of 33 nM. In assay [2], the “(fold-selectivity)” value is “(1.7x)” and the IC50 is 20 nM.
For `Cn1cnnc1C[C@]1(c2cccc(NC(=O)c3cccc(C(F)(F)F)n3)c2)C[C@H](F)C1` [Compound 18, N-(3-((1R,3S)-3-fluoro-1-((4-methyl-4H-1,2,4-triazol-3-yl)methyl)cyclobutyl)phenyl)-6-(trifluoromethyl)picolinamide] the same measures were 280 nM, “(1.1x)” and 260 nM.
For `Cn1cnnc1CC1(c2cccc(NC(=O)c3cc(CC(N)=O)cc(C(F)(F)F)n3)c2)COC1` [Compound 507, 4-(2-amino-2-oxoethyl)-N-(3-(3-((4-methyl-4H-1,2,4-triazol-3-yl)methyl)oxetan-3-yl)phenyl)-6-(trifluoromethyl)picolinamide], in that order: 89 nM, “(0.89x)” and 100 nM.
For `Cn1cnnc1CC1(c2cccc(NC(=O)c3nc(C(F)(F)F)c[nH]3)c2)COC1` [Compound 123, N-(3-(3-((4-methyl-4H-1,2,4-triazol-3-yl)methyl)oxetan-3-yl)phenyl)-4-(trifluoromethyl)-1H-imidazole-2-carboxamide], in that order: 1800 nM, “(0.77x)” and 2300 nM.
On to `Cn1cnnc1[C@H](F)C1(c2cccc(NC(=O)c3cc(CN4CC(C)(F)C4)cc(C(F)(F)F)n3)c2)COC1` [Compound 60, (R)-N-(3-(3-(fluoro(4-methyl-4H-1,2,4-triazol-3-yl)methyl)oxetan-3-yl)phenyl)-4-((3-fluoro-3-methylazetidin-1-yl)methyl)-6-(trifluoromethyl)picolinamide], for which the IC50 in assay [1] came to 330 nM. In assay [2], the “(fold-selectivity)” value is on record as “(2.5x)” and the IC50 came to 130 nM.
For `CC(C)[C@H]1CN(C)CCN1Cc1cc(C(=O)Nc2cccc(C3([C@H](F)c4nncn4C)CC(F)(F)C3)c2)nc(C2CC2)c1` [Compound 223, 6-cyclopropyl-N-(3-(3,3-difluoro-1-((S)-fluoro(4-methyl-4H-1,2,4-triazol-3-yl)methyl)cyclobutyl)phenyl)-4-(((S)-2-isopropyl-4-methylpiperazin-1-yl)methyl)picolinamide] the same measures were 11 nM, “(1.0x)” and 11 nM.
The molecule `C[C@H](c1cc(C(=O)Nc2cccc(C3([C@@H](F)c4nncn4C)COC3)c2)nc(C2CC2)c1)N1CCC2(CC2)C1` [Compound 23, 4-((R)-1-(5-azaspiro[2.4]heptan-5-yl)ethyl)-6-cyclopropyl-N-(3-(3-((R)-fluoro(4-methyl-4H-1,2,4-triazol-3-yl)methyl)oxetan-3-yl)phenyl)picolinamide] showed an IC50 in assay [1] of 47 nM. Besides, in assay [2], the “(fold-selectivity)” value is “(0.94x)” and the IC50 came to 50 nM.

The term IC50 denotes the concentration that gives 50% inhibition.
